Results taken from a melting point compilation (Tetko et al.; mined from patent text by program, amines drawn as free bases though some values may be those of a salt).

| Structure (SMILES) | melting point [°C] |
| --- | --- |
| Cn1c(=O)n(Cc2ccccc2)c(=O)c2cc(C(=O)NCc3ccc4c(c3)OCO4)ccc21 | 215 |
| Nc1ccc(C(c2ccc(N)cc2)(c2ccc(I)cc2)C(F)(F)F)cc1 | 171 to 172 |
| COc1ccc(C2=NN(CC(=O)Nc3cccc(-c4nnc(=O)sc4C)c3)C(=O)[C@H]3CC=CC[C@@H]23)cc1OC (relative stereo) | 157 to 161 |
| CCOC(=O)c1c(Cn2cncn2)nc2sc3cnccc3c2c1-c1ccc(OC)c(OC)c1 | 172 to 174 |
| O=c1[nH]c2cc(-n3cnc4c3CCCC4)c([N+](=O)[O-])cc2[nH]c1=O | > 300 |
| CC1(C)C=C(N2Cc3ccccc3C2=O)c2cc(S(=O)(=O)C(F)(F)F)ccc2O1 | 110 to 115 |
| CCCCNC(=O)Oc1ccc(C(O)(CC)c2cccc(C(F)(F)F)c2)c(OC(=O)NCCCC)c1 (stereo not drawn) | 110 to 111 |
| CC(C)N1CCC(CNc2ccc(F)cc2C(=O)Nc2ccc(Cl)cn2)CC1 | 142 to 144 |
| CNC(=O)Oc1ccc2c(c1)c1c(n2C)C2(CC1)CCN(Cc1ccccc1)CC2 | 189 to 190 |
| CC12CC(N3CCC(=O)CC3)C(O)CC1CCC1C2CCC2(C)C(O)C(N3CCCC3)CC12 (stereo not drawn) | 136 to 138 |
| N#Cc1cc(O)n(-c2ccccc2)n1 | 190 |
| CC(C)(C)CC(=O)Nc1ccc2oc3c(c2c1)CCCCC3 | 182 to 183 |
| COc1cccc(-c2oc3ccccc3c(=O)c2OCCCCCCN2CCC(O)CC2)c1 | 119 to 120 |
| O=C1c2ccccc2C(=O)N1C/C=C/CCl | 108 to 110 |
| CNC(=O)CCC(=O)c1ccc(OCC(O)CNC(C)C)cc1 (stereo not drawn) | 175 to 178 |
| O=C1Cc2cc(NC(=O)c3ccccc3[N+](=O)[O-])ccc2N1 | 265 |
| CCCN(C(C)=O)c1cccc(-c2ccc3nnc(C)n3n2)c1 | 145 to 149 |
| Fc1ccc(Nc2ncnc3cnc(NC4CCC(N5CCOCC5)CC4)nc23)cc1Cl (stereo not drawn) | 233 to 235 |
| O=c1c2cc(F)c(N3CCCC3)nc2n(-c2cccc(C(F)(F)F)c2)c(=O)n1O | 136 to 138 |

| Structure (SMILES) | melting point [°C] |
| --- | --- |
| Cn1c(=O)n(O)c(=O)c2cc(F)c(N3CCCC3)cc21 | > 250 |
| O=C(O)CC1CCc2c(n(Cc3ccccc3)c3ccccc23)S1 (stereo not drawn) | 164 to 167 |
| CSCC(=O)C(Cc1cccc2ccccc12)NC(=O)C(CC(C)C)NC(=O)OCc1ccccc1 (stereo not drawn) | 77 to 80 |
| COc1cc(OC)c2c(=O)cc(-c3ccccc3Cl)oc2c1C1CCN(C)C1CO (stereo not drawn) | 91 to 93 |
| CCc1nc2c(c(=O)n(C)c(=O)n2C)n1CCCOc1ccccc1 | 107 to 108 |
| O=C1CCC(c2ccc(C3CCCC3)cc2)=NN1 | 191 to 192 |
| CCCCCNC(=O)NCCCCCOc1cccc2sc(NC(C)=O)nc12 | 61.6 to 61.8 |
| O=C1NC(=O)c2c1c(-c1ccccc1)cc1c2c2cc(O)ccc2n1CCn1ccnc1 | > 345 |
| CCOC(=O)c1cc(-c2ccc(F)cc2)[nH]n1 | 148 to 150 |
| CC(=O)c1nc2ccc(OC(C)C)cc2cc1OCc1ccccc1 | 102 to 104 |
| CC(C(=O)O)c1ccc2oc(N)nc2c1 (stereo not drawn) | 225 to 229 |
| COC(=O)[C@H](CO)NC(=O)[C@@H]1CCCN1C(=O)OCc1ccccc1 | 97 to 100 |
| COc1cccc(-c2nc3ccc(OC(F)(F)F)cc3[nH]2)c1 | 192 to 194 |
| COc1ccc2c(Cc3c(Cl)cncc3Cl)nnc(-n3cncn3)c2c1 | 207 to 208 |
| Cc1c(CCN(C)C)c2cc(S(=O)(=O)c3ccccc3)ccc2n1C | 170 to 172 |
| N#Cc1nc(-c2cnn(-c3ccc(C(F)(F)F)cc3[N+](=O)[O-])c2Br)[nH]c1C#N | 86 to 90 |
| COC(=O)CC1(CN=C=O)CCCCCC1 | 69 to 72 |
| CC(C)(C)OC(=O)N1CCC(C)(c2nc(-c3ccncc3)c(-c3ccc(F)cc3)[nH]2)CC1 | 157 to 160 |
| CCOC(=O)Cc1c(C(=O)OCC)c(Br)c(C(=O)c2ccc(Cl)cc2)n1C | 88 to 90 |
